Structures are written as SMILES.

Usually melting point stands for the temperature of the solid-liquid transition.

`N#CCOc1ccc2cc(-c3csc(-c4ccccc4)n3)ccc2c1Br` returned a melting point of 157 to 160 °C. For the molecule `CN(C)c1ccc([N+](=O)[O-])c(C(=O)O)c1`, the melting point lay within 185 to 187 °C. Turning to `COc1ccccc1-n1ccc(=O)c(-c2ccnn2-c2ccccc2)n1`, the melting point was 153 to 154 °C. For the molecule `CCSc1c(CO)nc(C)n1Cc1ccc(-c2ccccc2C(=O)O)cc1`, the melting point worked out at 205 °C. Molecule `CCCN1C(=O)CC(=O)N(c2ccccc2)c2cc(Cl)ccc21` returned a melting point of 192 to 194 °C.

`O=C(C=Cc1ccc(COc2ccccc2)cc1)NC(Cc1ccccc1)C(=O)O` (centres undefined) yielded a melting point of 205 °C. Consider `COC(=O)[C@H](c1ccccc1Cl)N1CCc2sc(OC(=O)C=Cc3ccccc3)cc2C1`, for which the melting point was 122 to 124 °C. The same measure for `COc1ccc2c(c1)Oc1c(ccc(OC)c1C=O)C2(C)C`: 84.5 to 86 °C. In turn, `CC(C)OC(=O)c1cc(-n2c(=O)[nH]c3c(c2=O)CCC3)c(Cl)cc1Cl` gave a melting point of 186 to 189 °C. As for `C1=C(c2ccccc2)CCN(Cc2cc3ccccc3[nH]2)C1`, the figure is 128 to 130 °C; as for `O=Cc1ccc(-c2ccccc2-c2nnn(C(c3ccccc3)(c3ccccc3)c3ccccc3)n2)cc1`, 147 to 149 °C. The same measure for `CCOc1cc(C(=O)c2ccccn2)ccc1OCCOc1c(CC(=O)O)cccc1OC`: 184 to 186 °C; for `COc1cccc(N2CCC(NC(C)=O)CC2)n1`: 125 to 127 °C; for `CCCn1c(=O)n2c(-c3cccs3)nnc2c2c1ncn2C`: 206 to 207 °C. The same measure for `Cc1oc2ccc(O)cc2c(=O)c1Cc1cccc(NS(=O)(=O)C(F)(F)F)c1`: 232 to 234 °C; for `COCCCOc1cc(C[C@@H](C(=O)N2C(=O)OC[C@H]2Cc2ccccc2)C(C)C)ccc1OC`: 55 to 56 °C.

Molecule `O=C(CC(F)(F)F)NCC(=O)n1ccc2cc(/C=C/C(c3cc(Cl)c(F)c(Cl)c3)C(F)(F)F)ccc21` (centres undefined) registered a melting point of 121 to 126 °C. On to `CS(=O)(=O)c1ncc2cc(-c3ccccc3Cl)c(O)nc2n1`, for which the melting point was 215 to 221 °C. `COC(=O)c1ccccc1S(=O)(=O)NC(=O)Nc1ncccn1` yielded a melting point of 188 to 192 °C. `COc1cc2c(cc1Br)-c1c(-c3cccs3)c3c(n1CC2)C(=O)N(C(C)C)CCNC3` gave a melting point of 201 to 203 °C.

Molecule `CC1(C)C=C(c2ccccn2)c2cc(-c3ccccc3)ccc2OC1` gave a melting point of 115 to 120 °C.

Regarding `Cn1cc(C(=O)NCc2ccc(Cl)cc2)c(=O)c2cc(CCCCO)oc21`, the melting point fell in the range of 157 to 160 °C. As for `COC(=O)C(C)C(=O)Nc1ccc(OCc2cccc(F)c2)cc1` (centres undefined), the melting point stood at 119 °C. As for `CN(C1CCN(Cc2cccs2)CC1)S(=O)(=O)c1ccc(Nc2nccc(Nc3ccc(F)cc3)n2)cc1`, the figure is 175 to 176 °C; as for `COC(=O)CCC(=O)c1ccc(-c2ccc(SC)cc2)cc1`, 137 to 140 °C; as for `O=C(CNc1c(C(=O)O)[nH]c2cc(Cl)cc(Cl)c12)c1ccc([N+](=O)[O-])cc1`, 270 to 272 °C. Consider `COC(=O)CCCNC(=O)/C=C/C=C/c1ccccc1`, for which the melting point was in the range of 153 to 155 °C.

Consider `O=C(O)c1ccc(-c2nc(-c3cc(Cl)sc3Cl)cs2)cc1`, for which the melting point was in the range of 266 to 267 °C. Molecule `Cc1[nH]c2c(ccc3sc4ccccc4c32)c1C=O` had a melting point of 192 to 194 °C. As for `CCOC(=O)c1ccc(NS(C)(=O)=O)c(Oc2ccc(F)cc2F)c1`, the figure is 111 to 113 °C; as for `CC(CC(C)C1CCC2C3C(O)CC4CC(O)CCC4(C)C3CC(O)C12C)C(=O)O` (centres undefined), 151 to 153 °C. The same measure for `Cc1nc(C)c(-c2[nH]nc3c2C(=O)c2c(NC(=O)NN4CCN(C)CC4)cccc2-3)s1`: 278 °C; for `CCOC(=O)COc1ccccc1C(=O)Nc1ccccc1Sc1ccc(-c2nnn[nH]2)cc1`: 155 to 157 °C. As for `O=C(c1ccccc1)N1Cc2c(-c3noc(C4CC4)n3)ncn2-c2ccccc21`, the figure is 198 to 199 °C. For `CCOc1ccc(S(=O)c2ccccc2)cc1[N+](=O)[O-]` (centres undefined), the melting point lay in the range of 119 to 121 °C. As for `CCCC(=CC(=O)Nc1ccccc1)OC`, the figure is 104 °C. Take `CCN(CC)C(=O)COc1nc(-c2ccccc2)c2ccccc2n1`: the melting point was determined as 88 °C. `CCCn1cc2c(C3C(=O)Nc4ccc(Br)cc43)nc(NCCC(F)(F)F)nc2n1` (centres undefined): the melting point was above 300 °C.

Take `CCSc1nc2c(C(=O)OC)sc(-c3ccccc3)c2[nH]1`: the melting point is 214 to 215 °C. For `Cc1nc(C(C)(O)c2nc(C)c(C)s2)sc1C`, the melting point lay in the range of 143 to 144 °C. In turn, `Cc1cc(C)c2ncc(NC(=O)c3cc(C)c(O)c(C)c3C)c(-c3ccccc3Cl)c2c1` displayed a melting point of 261 to 264 °C. In turn, `CC(=O)OC1CSC(Sc2ccc(C(=O)C(F)(F)F)cc2)C(OC(C)=O)C1OC(C)=O` (centres undefined) showed a melting point of 143 to 148 °C.

`CC(=O)Nc1c(C#N)cnn1-c1c(Cl)cc(Cl)c(Cl)c1Cl` yielded a melting point of 115 °C. Molecule `O=C(c1ccc([N+](=O)[O-])cc1)N1Cc2ccccc2C(c2ccccc2Cl)c2ccccc21` (centres undefined) registered a melting point of 178 to 181 °C. The same measure for `COCCOc1ccc([N+](=O)[O-])cc1F`: 62 to 63 °C.

Molecule `O=C1N(Cc2ccccc2C(F)(F)F)c2ccccc2C12COc1cc3c(cc12)OCCO3` (centres undefined) registered a melting point of 137 to 138 °C. The molecule `C=CCNc1cc(Oc2ccccc2)c(Cl)cc1[N+](=O)[O-]` yielded a melting point of 81 to 82 °C. The same measure for `N#Cc1ccc(CC23CCCN2C(=O)N(Cc2cc(Cl)cc(Cl)c2)C3=O)cc1` (centres undefined): 124 °C; for `N#Cc1ccc(-c2ccc(OC(F)(F)F)c(CNC3CCN(C(=O)C(N)=O)CC3c3ccccc3)c2)c(F)c1` (centres undefined): 142 to 144 °C. The same measure for `CCCCC(C)c1ccc(C=Cc2cc3cc4ccccc4cc3s2)cc1` (centres undefined): 280 to 282 °C; for `CCOC(=O)C1=CCCCC1S(=O)(=O)Nn1cccc1-c1ccccc1` (centres undefined): 160 to 161 °C. For `O=[N+]([O-])c1ccc(OCc2cscn2)cc1`, the melting point was in the range of 175 to 176 °C. As for `O=C(Nc1ccc(CN2C(=O)[C@H]3CCC[C@H]3N(C(=O)CN3C(=O)c4ccccc4C3=O)c3ccccc32)cc1)c1ccc(Cl)cc1` (relative stereo), the figure is 191 to 194 °C; as for `Cc1ccc(OC(=O)Cl)cc1`, 60 to 61.5 °C; as for `Cc1cc(NCC(=O)N(C)c2ccccc2)nc(-c2ccccc2)n1`, 134 to 136 °C. As for `CC(=O)Nc1ccc(C(=S)SCC(=O)O)cc1`, the figure is 224 to 226 °C; as for `Cn1ncc(/C=C/C(=O)Nc2ccc(Cc3nc4c(s3)CCCC4)cc2)c1-c1ccc(F)cc1`, 205 to 206 °C. The same measure for `CCCN1C(=O)N2CCN=C2c2c1nc(C1CCCC1)n2C`: 246 to 247 °C. `O=CNc1ccc2[nH]c3cc(-c4ccccc4Cl)c4c(c3c2c1)C(=O)NC4=O` yielded a melting point of 293 to 297 °C. The same measure for `CC(Oc1ccc(Br)cc1)(C(=O)O)c1ccccc1` (centres undefined): 88 to 89 °C.

With `O=C1CCN(C(=O)c2cc(C(F)(F)F)cc(C(F)(F)F)c2)C(Cc2ccccc2)C1` (centres undefined), the melting point amounted to 102 °C. For the molecule `Nc1n[nH]c2c1CCC2`, the melting point lay within 116 to 120 °C.

For `NC(=O)Cc1nn(-c2ccccn2)c2[nH]c3ccccc3c(=O)c12`, the melting point lay within 302 to 305 °C. On to `COCc1nc(N)nc(N)c1-c1cc(Cl)cc(Cl)c1`, for which the melting point is 228 to 230 °C. The same measure for `O=C1Cc2cc(NCc3ccccc3)ccc2N1`: 203 to 206 °C. `CCCCCC(CC(=O)Nc1cc(C(N)=O)ccc1C(C)(C)C)c1ccc(OCCCOCC)cc1OC` (centres undefined) returned a melting point of 135 to 136 °C.

In turn, `O=Cc1cncc2ncc(-c3ccccc3)cc12` had a melting point of 148 °C.

`CC(=O)Nc1ccc(C(C)=C(Cl)Cl)cc1`: the melting point was in the range of 164 to 166 °C. As for `CCCC1(O)CCC2C3CCC4=CC(=O)CCC4C3CCC21CC` (centres undefined), the figure is 132 to 134 °C; as for `CN(C)C(=O)Cc1cccc(C(=O)c2ccccc2)c1N`, 123 to 124 °C; as for `CCOC(=O)CSc1ncnc2c(O)n(C(C)(C)C)nc12`, 129 to 131 °C. `CCCCOc1cc(-c2cc3ccccc3[nH]2)ccc1O` registered a melting point of 163 °C. As for `NC(=O)c1n[nH]c(S(=O)(=O)c2ccccc2)n1`, the figure is 150 to 153 °C; as for `C=Cn1cc(C(=O)O)c(=O)c2cc(F)c(O)nc21`, 256 to 259 °C; as for `O=C1Nc2cc(C(F)(F)F)ccc2Oc2ccccc21`, 246 to 247 °C. Regarding `CCONC(=O)c1cc(Br)c(Br)s1`, the melting point fell in the range of 117 to 119 °C. As for `CCOC(=O)c1cc(CC)sc1Nc1c(Cl)cccc1[N+](=O)[O-]`, the figure is 67 to 70 °C; as for `Cc1cn(Nc2ccncn2)c2ccccc12`, 121 to 123 °C; as for `CCOC(=O)C1=Cc2cc(Cl)ccc2N(C)C1C(F)(F)F` (centres undefined), 118 to 120 °C. Consider `CC(=O)NC[C@H]1CN(c2ccc(C3CCN(c4nnc(C)s4)CC3)c(F)c2)C(=O)O1`, for which the melting point was 193 to 195 °C. As for `NCc1cn(C2CCc3ccccc3C2)c(=S)[nH]1` (centres undefined), the figure is 197 to 200 °C. The same measure for `O=C1c2ccccc2C(=O)N1CCCn1cc(S(=O)(=O)c2ccccc2)c2ccccc21`: 205 to 206 °C; for `Cc1oc(-c2ccco2)nc1COc1ccc(CCl)cn1`: 95 to 96 °C. Regarding `CC(C)(C)NS(=O)(=O)c1ccc([N+](=O)[O-])cc1`, the melting point lay in the range of 105 to 109 °C. As to `O=C(C1CCN(c2ccncc2)CC1)N1CCN(S(=O)(=O)c2ccc(-c3ccccn3)cc2)CC1`, the melting point fell in the range of 224 to 226 °C.

Turning to `c1ccc(CSc2nc3ncccn3n2)cc1`, the melting point is 104 to 106 °C. Take `CCOCc1nc2c(N)nc(C)c(C)c2n1NCCCNS(C)(=O)=O`: the melting point fell in the range of 147 to 149 °C.

As for `COC(=O)COc1ccc(F)c2c1c1c(n2Cc2ccccc2)CCCC1C(N)=O` (centres undefined), the melting point is 183 to 185 °C. As for `CN1CCC2(CC1=O)c1ccccc1Oc1ccccc12`, the figure is 158 to 159 °C.
